According to patent publication US9394544B2, “Ameliorating oxidative stress in neurodegenerative disease via Nox1 targeting” (University of Central Florida Research Foundation, Inc., priority 2013, dated 2016):

What was measured:
[1] = system: differentiated human dopaminergic cells (ReNcell VM); experiment: α-Synuclein and Nox1 levels in differentiated ReNcell VM human dopaminergic neurons exposed to PQ; format: cell-based
Description: For the in vitro experiments on human dopaminergic neurons, human mesencephalic neuronal progenitor cell line available from Millipore (catalog number SCC008) was used. The specialty of these cells is that they are isolated from fetal human ventral mesencephalic region and subsequently immortalized by introduction of v-myc. The cells can readily differentiate into dopaminergic neurons upon withdrawal of growth factors (Millipore). The culture method was followed as indicated by the company with little modifications. Briefly, the cells were allowed to grow on laminin-coated (20 μg/ml) dishes in DMEM/F12-containing medium with B27 supplement, glutamax, heparin (10 U/ml), and gentamicin (50 μg/ml). This medium is called maintenance medium. Cell division was allowed by addition of the two growth factors in the medium viz., basic fibroblast growth factor (bFGF) and epidermal growth factor (EGF), both at a concentration of 20 ng/ml. […]
After each respective treatment, cells were fixed in 4% paraformaldehyde (PFA) for 20 min and permeabilized with 0.1% Triton X-100 in PBS for 10 min. […] For quantification of Flag^+ and α-synuclein^+ cells, >30 different fields per coverslip were analyzed on a Nikon inverted fluorescent microscope under a 20× and 40× magnification.

rat SN = experiment: Immunohistochemistry of SN sections, PQ rat model; format: in vivo
Procedure: The experiments were performed on rats, in accordance with the National Institutes for Health Guide for the Care and Use of Laboratory Animals. All procedures were approved by the local Animal Care and Use Committee. Male Wistar rats (8-10 weeks; Charles River) were maintained in a temperature/humidity-controlled environment under a 12 h light/dark cycle with ad libitum access to food and water. As depicted in FIG. 13A, each animal received four intraperitoneal injections, separated by 1 d, of either vehicle (saline) or PQ (10 mg/kg body weight; b.w.), according to a previously published dose (Manning-Bog et al., 2002; Harraz et al., 2008; Cristovao et al., 2009). All animals were weighed at day 1 and 12. In the studies using the paradigm depicted in FIG. 13A, 4 weeks before starting PQ intraperitoneal injection, animals were stereotaxically injected with various viral constructs at the right SN using the following coordinates: mediolateral, +2.0; anteroposterior, −5.3; dorsoventral, −6.8. Animals were organized into four groups: vector+vehicle: stereotaxically injected with adeno-associated virus (AAV) particles containing a green fluorescent protein (GFP) vector (vector) and then intraperitoneally injected with saline (vehicle) (n=10); vector+PQ: stereotaxically injected with vector and then intraperitoneally injected with PQ (n=10); shNox1+PQ: stereotaxically injected with AAV particles harboring Nox1 shRNA and then intraperitoneally injected with PQ (n=10); shNox1+vehicle: stereotaxically injected with Nox1 shRNA and then intraperitoneally injected with vehicle (n=8). AAV containing GFP vector was used as a negative control. Five days after the last PQ intraperitoneal injection, animals were killed. For Western blot analysis, brains were collected and total protein lysates from SN were prepared. For immunohistochemical analysis, animals were intracardially perfused before collecting the brains.
Following perfusion with saline and 4% PFA in PBS, brains were removed, and forebrain and midbrain blocks were immersion fixed in 4% PFA and cryoprotected in sucrose. Serial coronal sections (40 μm) were cut on a cryostat, collected in cryopreservative solution, and stored at −20° C. For immunolabeling studies, sections were incubated at room temperature with blocking solution for 1 h (5% FBS and 0.3% Triton X-100 in PBS, pH 7.5) and then with primary antibodies overnight. Finally, sections were incubated with secondary antibodies in blocking solution at room temperature for 1 h. The primary antibodies used were mouse anti-TH (1:10,000), rabbit anti-Nox1 (1:500), goat anti-4-HNE (1:700), mouse anti-ubiquitin (1:250), rabbit anti-α-synuclein (1:150), and rabbit anti-A11 oligomers (2.5 μg/ml). The secondary antibodies were biotinylated anti-rabbit IgG, anti-goat IgG, or anti-rat IgG (1:200). The staining procedure was performed as indicated by the manufacturer of the Vectastain ABC kit and the reaction product visualized using 3,3′-diaminobenzidine (DAB) reagent in TBS containing 0.02% H2O2. The numbers of TH-immunoreactive cells in the SN were counted using an optical fractionator. Analysis was performed using a system consisting of a Nikon Eclipse E600 microscope (Morrell Instruments) equipped with a computer-controlled LEP BioPoint motorized stage (Ludl Electronic Products), a DEI-750 video camera (Meyer Instruments), a Dell Dimension 4300 computer (Dell), and the Stereo Investigator (v. 4.35) software program (Microbrightfield).
Immunocytochemistry for proteinase K (PK)-resistant α-synuclein was performed based on a methodology reported previously (Neumann et al., 2002), with some modifications. Briefly, fixed cells were permeabilized with 0.1% Tween 20 and then digested for 30 min at 37° C. with PK (10 μg/ml). PK was inactivated with 3 M guanidine thiocyanate in 10 mM Tris-HCl solution for 10 min. Between each step, cells were washed gently three times with PBS. […]

## C[n+]1ccc(-c2cc[n+](C)cc2)cc1 [PQ, paraquat]
[1]; 8 h PQ
  Nox1 level (immunocytochemistry, Western blot): highly elevated
[1]; PQ 800 or 1000 μM, 8 and 24 h
  α-synuclein level: increases over time
Rat SN; PQ, PQ with Nox1 knocked down
  immunoreactivity of A11 oligomers in the SN: significant increase
Rat SN; rats, PQ vs vehicle
  α-Synuclein immunoreactivity in the SN: increased
Rat SN; rats, PQ vs vehicle, Nox1 shRNA+PQ vs PQ
  4-HNE immunoreactivity (lipid peroxidation) in the SN: increase
Rat SN; rats, PQ vs vehicle, Nox1 shRNA+PQ vs vector+PQ
  Nox1 immunoreactivity in the SN: upregulation
Rat SN; vector+PQ vs vector+vehicle, Nox1 shRNA+PQ
  PK-resistant α-synuclein immunoreactivity in the rat SN: increase
Rat SN; vector+PQ, Nox1 shRNA+PQ
  ubiquitin immunoreactivity in the rat SN: significant increase
